Numbers after ± are expanded uncertainties.
Assays:
[1] = 298.15 K; 100 kPa; Liquid; Frequency=2 MHz; Linear variable-path acoustic interferometer
[2] = mn = molality of the nth substance listed, in mol/kg; conditions: 298.15 K; 100 kPa; Liquid; Frequency=2 MHz; Linear variable-path acoustic interferometer; m2 = 0

SMILES | speed of sound [1] | speed of sound [2]
O [water] | 1497.7 ± 2.5 m/s | 
O [water] + CC(C)C[C@H](N)C(=O)[O-].CCCCn1cc[n+](C)c1 |  | 1497.6 ± 2.5 m/s
O [water] + CC(C)[C@H](N)C(=O)[O-].CCCCn1cc[n+](C)c1 |  | 1497.6 ± 2.5 m/s
O [water] + CCCCn1cc[n+](C)c1.NCC(=O)[O-] |  | 1497.6 ± 2.5 m/s

Continued, values first:

speed of sound [1] | speed of sound [2] | SMILES
 | 1497.8 ± 2.5 m/s | O [water] + CCCCn1cc[n+](C)c1.CC[C@H](C)[C@H](N)C(=O)[O-]
 | 1497.8 ± 2.5 m/s | O [water] + CCCCn1cc[n+](C)c1.C[C@H](N)C(=O)[O-]

Source: the NIST ThermoML archive (doi:10.1016/j.jct.2014.07.026)
